Measured values from patent US8546381B2, “Bridged heterocyclic compounds and methods of use” (Medivation Technologies, Inc., priority 2008, dated 2013).

Legend:
[1] = test system: rat central imidazoline I2 receptor; assay: Central imidazoline I2 radioligand binding ([3H]Idazoxan); conditions: compound at 1 μM; inhibition of specific [3H]Idazoxan binding
Protocol: To evaluate in radioligand binding assays the activity of compounds of the invention, rat central imidazoline I2 receptor obtained from Wistar Rat cerebral cortex (Brown, C. M. et al., Br. J. Pharmacol. 99:803, 1990) in a modified Tris-HCl buffer (50 mM Tris-HCl buffer, pH 7.4, 0.5 mM EDTA) was used. Compounds of the invention were incubated with 2 nM [^3H]Idazoxan for 30 minutes at 25° C. Non-specific binding was estimated in the presence of 1 μM Idazoxan. Receptor proteins were filtered and washed, the filters were then counted to determine [^3H]Idazoxan specifically bound. Compounds were screened at 1 μM or lower, using 1% DMSO as vehicle. Compounds of the invention were tested in this biochemical assay and percent inhibition of specific binding was determined.

[2] = target: T1, human recombinant serotonin (5-Hydroxytryptamine) 5-HT2B receptor (Homo sapiens, UniProt P41595); assay: Serotonin 5-HT2B radioligand binding ([3H]LSD); conditions: for inhibition at 1 µM: read-out: Serotonin 5-HT2B, inhibition of ligand binding (1 μM)
T1 construct: expressed in transfected cells; host or cells: CHO-K1 cells
T1 sequence (P41595 whole entry): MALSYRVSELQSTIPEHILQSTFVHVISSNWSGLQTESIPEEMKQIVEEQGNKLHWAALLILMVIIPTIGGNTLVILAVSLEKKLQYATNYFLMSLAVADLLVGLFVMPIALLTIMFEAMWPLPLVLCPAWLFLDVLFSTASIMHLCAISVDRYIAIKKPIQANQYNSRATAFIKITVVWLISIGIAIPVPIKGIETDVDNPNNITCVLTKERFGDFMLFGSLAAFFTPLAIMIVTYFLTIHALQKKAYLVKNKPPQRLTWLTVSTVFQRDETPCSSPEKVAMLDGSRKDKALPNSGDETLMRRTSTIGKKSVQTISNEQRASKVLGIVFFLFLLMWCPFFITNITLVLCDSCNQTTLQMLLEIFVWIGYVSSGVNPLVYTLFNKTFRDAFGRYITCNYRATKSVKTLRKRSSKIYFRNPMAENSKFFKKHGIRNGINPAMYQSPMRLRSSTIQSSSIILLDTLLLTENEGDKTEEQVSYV
Protocol: To evaluate in radioligand binding assays the activity of compounds of the invention, human recombinant serotonin (5-Hydroxytryptamine) 5-HT2B receptor expressed in Chinese hamster ovary (CHO-K1) cells (Bonhaus, D. W. et al., Br. J. Pharmacol. 115:622, 1995) in a modified Tris-HCl buffer (50 mM Tris-HCl, pH 7.4, 4 mM CaCl2, 0.1% Ascorbic Acid) was used. Compounds of invention were incubated with 1.2 nM [^3H]Lysergic acid diethylamide (LSD) for 60 minutes at 37° C. Non-specific binding was estimated in the presence of 10 μM Serotonin (5-HT). Receptor proteins were filtered and washed, the filters were then counted to determine [^3H]LSD specifically bound. Compounds were screened at 1 μM or lower, using 1% DMSO as vehicle. Compounds of the invention were tested in this biochemical assay and percent inhibition of specific binding was determined. Biochemical assay results are presented as the percent inhibition of specific binding in Table 4.

[3] = target: T2, human recombinant serotonin (5-Hydroxytryptamine) 5-HT7 receptor (Homo sapiens, UniProt P34969); assay: Serotonin 5-HT7 radioligand binding ([3H]LSD); conditions: for inhibition at 1 µM: read-out: Serotonin 5-HT7, inhibition of ligand binding (1 μM)
T2 construct: expressed in transfected cells; host or cells: CHO cells
T2 sequence (P34969 whole entry): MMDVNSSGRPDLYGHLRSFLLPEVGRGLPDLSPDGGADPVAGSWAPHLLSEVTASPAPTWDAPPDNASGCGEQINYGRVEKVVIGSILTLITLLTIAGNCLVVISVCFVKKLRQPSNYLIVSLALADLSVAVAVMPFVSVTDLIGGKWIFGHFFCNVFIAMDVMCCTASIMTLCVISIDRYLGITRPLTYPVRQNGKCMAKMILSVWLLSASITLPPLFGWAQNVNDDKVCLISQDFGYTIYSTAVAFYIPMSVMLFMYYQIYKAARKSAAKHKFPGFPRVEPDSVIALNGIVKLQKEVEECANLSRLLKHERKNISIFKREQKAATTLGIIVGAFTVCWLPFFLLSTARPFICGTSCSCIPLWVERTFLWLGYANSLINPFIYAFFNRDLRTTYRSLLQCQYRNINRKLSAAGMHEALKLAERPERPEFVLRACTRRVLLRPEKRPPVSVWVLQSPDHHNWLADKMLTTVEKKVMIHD
Protocol: To evaluate in radioligand binding assays the activity of compounds of the invention, human recombinant serotonin (5-Hydroxytryptamine) 5-HT7 receptor expressed in Chinese hamster ovary (CHO) cells (Roth, B. L. et al., J. Pharmacol. Exp. Ther. 268:1403, 1994; Shen, Y. et al., J. Biol. Chem. 268:18200, 1993) in a modified Tris-HCl buffer (50 mM Tris-HCl, pH 7.4, 10 mM MgCl2, 0.5 mM EDTA) was used. Compounds of invention were incubated with 5.5 nM [^3H] Lysergic acid diethylamide (LSD) for 2 hours at 25° C. Non-specific binding was estimated in the presence of 10 μM Serotonin (5-HT). Receptor proteins were filtered and washed, the filters were then counted to determine [^3H]LSD specifically bound. Compounds were screened at 1 μM or lower, using 1% DMSO as vehicle. Biochemical assay results are presented as the percent inhibition of specific binding in Table 4.

[4] = target: T3, human recombinant serotonin (5-Hydroxytryptamine) 5-HT5A receptor (Homo sapiens, UniProt P47898); assay: Serotonin 5-HT5A radioligand binding ([3H]LSD); conditions: read-out: Serotonin 5-HT5A, inhibition of ligand binding (1 μM)
T3 construct: expressed in transfected cells; host or cells: CHO-K1 cells
T3 sequence (P47898 whole entry): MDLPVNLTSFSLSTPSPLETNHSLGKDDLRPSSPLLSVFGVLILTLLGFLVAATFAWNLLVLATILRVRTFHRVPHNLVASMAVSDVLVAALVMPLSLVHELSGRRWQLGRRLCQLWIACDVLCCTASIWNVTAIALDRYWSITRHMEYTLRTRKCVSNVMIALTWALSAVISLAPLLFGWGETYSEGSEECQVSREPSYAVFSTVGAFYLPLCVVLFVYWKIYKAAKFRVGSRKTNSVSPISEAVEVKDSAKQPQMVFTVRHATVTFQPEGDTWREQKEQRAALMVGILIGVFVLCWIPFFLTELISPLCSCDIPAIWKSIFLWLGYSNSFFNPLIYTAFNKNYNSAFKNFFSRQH
Protocol: To evaluate in radioligand binding assays the activity of compounds of the invention, human recombinant serotonin (5-Hydroxytryptamine) 5-HT5A receptor expressed in Chinese hamster ovary (CHO-K1) cells (Rees, S. et al., FEBS Lett. 355:242, 1994) in a modified Tris-HCl buffer (50 mM Tris-HCl, pH 7.4, 10 mM MgCl2, 0.5 mM EDTA) was used. Compounds of the invention were incubated with 1.7 nM [^3H]Lysergic acid diethylamide (LSD) for 60 minutes at 37° C. Non-specific binding was estimated in the presence of 100 μM Serotonin (5-HT). Receptor proteins were filtered and washed, the filters were then counted to determine [^3H]LSD specifically bound. Compounds were screened at 1 μM or lower, using 1% DMSO as vehicle. Compounds of the invention were tested in this biochemical assay and percent inhibition of specific binding was determined. Biochemical assay results are presented as the percent inhibition of specific binding in Table 4.

[5] = target: T4, human recombinant dopamine D2L receptor (Homo sapiens, UniProt P14416); assay: Dopamine D2L radioligand binding ([3H]Spiperone); conditions: read-out: Dopamine (1 μM) D2L, inhibition of ligand binding
T4 construct: expressed in transfected cells; host or cells: CHO cells
T4 sequence (P14416 whole entry): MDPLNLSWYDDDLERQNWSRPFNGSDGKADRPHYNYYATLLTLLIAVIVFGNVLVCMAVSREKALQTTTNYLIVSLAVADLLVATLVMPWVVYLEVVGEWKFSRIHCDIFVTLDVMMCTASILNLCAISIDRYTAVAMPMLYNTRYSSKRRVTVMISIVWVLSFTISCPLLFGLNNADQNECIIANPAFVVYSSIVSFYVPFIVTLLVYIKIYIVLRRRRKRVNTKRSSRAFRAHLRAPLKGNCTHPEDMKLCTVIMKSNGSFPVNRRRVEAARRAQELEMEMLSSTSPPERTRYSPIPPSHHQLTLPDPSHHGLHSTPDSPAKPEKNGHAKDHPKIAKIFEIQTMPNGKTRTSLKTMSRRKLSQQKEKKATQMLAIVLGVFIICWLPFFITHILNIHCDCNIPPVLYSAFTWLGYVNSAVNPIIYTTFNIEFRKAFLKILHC
Protocol: To evaluate in radioligand binding assays the activity of compounds of the invention, human recombinant dopamine D2L receptor expressed in Chinese hamster ovary (CHO) cells (Grandy, D. K. et al. Proc. Natl. Acad. Sci. USA. 86:9762, 1989; Hayes, G. et al., Mol. Endocrinol. 6:920, 1992) in a modified Tris-HCl buffer (50 mM Tris-HCl, pH 7.4, 1.4 mM Ascorbic Acid, 0.001% BSA, 150 mM NaCl) was used. Compounds of the invention were incubated with 0.16 nM [^3H]Spiperone for 120 minutes at 25° C. Non-specific binding was estimated in the presence of 10 μM Haloperidol. Receptor proteins were filtered and washed, the filters were then counted to determine [^3H]Spiperone specifically bound. Compounds were screened at 1 μM or lower, using 1% DMSO as vehicle. Biochemical assay results are presented as the percent inhibition of specific binding in Table 3.

Cc1ccc2c(c1)c1c(n2CCc2ccccc2)CC2CCC1N2C (stereo not drawn) [Compound 2]
Imidazoline I2 Central (1 μM), Percentage Inhibition [1]: 70% | inhibition at 0.03 µM ([2]; read-out: Serotonin 5-HT2B, inhibition of ligand binding (0.03 μM)): 37% | inhibition at 0.3 µM ([2]; read-out: Serotonin 5-HT2B, inhibition of ligand binding (0.3 μM)): 88% | inhibition at 1 µM [2]: 71% | inhibition at 0.003 µM ([3]; read-out: Serotonin 5-HT7, inhibition of ligand binding (3.0 nM)): 38% | inhibition at 0.03 µM ([3]; read-out: Serotonin 5-HT7, inhibition of ligand binding (0.03 μM)): 81% | inhibition at 1 µM [3]: 98% | inhibition at 1 µM [4]: 86%

CN1C2CCC1c1c(n(CCC(=O)N3CCOCC3)c3ccc(Cl)cc13)C2 (stereo not drawn) [Compound 13]
Imidazoline I2 Central (1 μM), Percentage Inhibition [1]: −7% | inhibition at 1 µM [5]: 13%

CN1C2CCC1c1c(n(CCc3ccc(F)cc3)c3ccc(F)cc13)C2 (stereo not drawn) [Compound 35]
Imidazoline I2 Central (1 μM), Percentage Inhibition [1]: 33% | inhibition at 1 µM [5]: 67%

CN1C2CCC1c1c(n(CCc3ccc(Cl)cc3)c3ccc(F)cc13)C2 (stereo not drawn) [Compound 33]
Imidazoline I2 Central (1 μM), Percentage Inhibition [1]: 6% | inhibition at 1 µM [5]: 17%

CN1C2CCC1c1c(n(CCc3ccc(Cl)cc3)c3ccc(Cl)cc13)C2 (stereo not drawn) [Compound 58]
Imidazoline I2 Central (1 μM), Percentage Inhibition [1]: 8% | inhibition at 1 µM [2]: 32% | inhibition at 1 µM [3]: 93% | inhibition at 1 µM [4]: 69%

CN1C2CCC1c1c(n(CCc3ccc(F)cc3)c3ccc(Cl)cc13)C2 (stereo not drawn) [Compound 57]
Imidazoline I2 Central (1 μM), Percentage Inhibition [1]: 8% | inhibition at 1 µM [2]: 48% | inhibition at 1 µM [3]: 94% | inhibition at 1 µM [4]: 48%

CN1C2CCC1c1c(n(CC(=O)N3CCCC3)c3ccc(Cl)cc13)C2 (stereo not drawn) [Compound 60]
Imidazoline I2 Central (1 μM), Percentage Inhibition [1]: 1% | inhibition at 1 µM [5]: 0%

Cc1ccc2c(c1)c1c(n2CCc2ccc(F)cc2)CC2CCC1N2C (stereo not drawn) [Compound 62]
Imidazoline I2 Central (1 μM), Percentage Inhibition [1]: 52% | inhibition at 1 µM [5]: 41%

Cc1ccc(CCn2c3c(c4cc(Cl)ccc42)C2CCC(C3)N2C)cc1 (stereo not drawn) [Compound 61]
Imidazoline I2 Central (1 μM), Percentage Inhibition [1]: 22% | inhibition at 1 µM [5]: 44%

CN1C2CCC1c1c(n(CCC(=O)N3CCCC3)c3ccc(Cl)cc13)C2 (stereo not drawn) [Compound 5]
Imidazoline I2 Central (1 μM), Percentage Inhibition [1]: 25% | inhibition at 1 µM [5]: 10%

CN1C2CCC1c1c(n(CC(=O)N3CCOCC3)c3ccc(Cl)cc13)C2 (stereo not drawn) [Compound 59, 2-(2-chloro-11-methyl-5,6,7,8,9,10-Hexahydro-7,10-iminocyclohept[b]indol-5-yl)-1-morpholinoethanone]
Imidazoline I2 Central (1 μM), Percentage Inhibition [1]: −8% | inhibition at 1 µM [5]: 6%

Cc1ccc2c(c1)c1c(n2CCc2ccccc2)CC2CCCC1N2C (stereo not drawn) [Compound 56]
Imidazoline I2 Central (1 μM), Percentage Inhibition [1]: 27% | inhibition at 1 µM [2]: -11% | inhibition at 1 µM [3]: 92% | inhibition at 1 µM [4]: 40%
